{
  "source": "patent US20250032429A1",
  "about": "“2-FLUORODESCHLO[…] TREATMENT OF DEPRESSION, INCLUDING TREATMENT-RESISTANT DEPRESSION” (CLEARMIND MEDICINE INC., priority 2021, published 2025)",
  "key": {"[1]": {"assay": "Dose-response of arylcyclohexamines: intensity of experience after nasal spray, Shulgin + rating", "format": "in vivo", "details": "for dose-response curve (shape): administered in the same way, FIG. 1, FIG. 2; for 2-FDCK effect / Ketamine effect / 2-DCK effect / OPCE effect: nasal spray, Shulgin + scale as 1-4; for dosage effective as lower threshold: initial experimentation, logarithmic dosing", "description": "For safety reasons, when exploring novel psychoactives—the logarithmic scale is adopted for initial dosing to get an idea of whether or not a compound is active and if so, at what dosage ranges.\nFollowing this initial experimentation with OPCE, 2-DCK, and 2-FDCK (Ketamine was later added to the study for reference) it was clear that dosages of 3 mg, 15 mg, and 30 mg, correspondingly, were effective as lower thresholds for further exploration. It was decided to multiply the lower threshold doses by 2, 3 & 4 to explore the effects of higher doses on the mind. Every several days a portion of one of the compounds was measured out on an Ohaus Scout balance scale and prepared for administration via nasal spray using a refillable nasal spray bottle.\nThe goals were to score a “+” ranking for effect and keep an open mind to look out for any other noteworthy observations. The Shulgin “+” based rating system (SHULGIN, A. T., & SHULGIN, A. (1991). Pihkal: a chemical love story. Berkeley, CA, Transform Press, page 964) for psychedelic experiences was chosen for a yearlong exploration of these various arylcylohexamines. Although the target family of molecules and the type of experience were different from the rating systems' original design, the scale's simplicity yields itself particularly well to this kind of exploration for a few reasons: • (1) The experience rendered by novel psychedelics is often ineffable.\nIt was therefore desirable to use the simple +, ++, +++, ++++ as 1, 2, 3, 4 to rate intensity of experience without seeking an objective measure for intensity.\nWhen the dosages are adjusted to units that make all dose/response curves fit on the same graph then running a spline through the data points gives us curves that resemble, qualitatively, the curves appearing in FIG. 2."}, "C57BL/6N mice": {"test_system": "C57BL/6N mice", "assay": "Mouse forced swim test (FST), two-day paradigm", "format": "in vivo", "details": "i.p. in saline 30 minutes prior to FST; day 2, final 4 minutes of 6 minute session; vs vehicle", "description": "Male 10 week C57BL/6N mice (Taconic) are acclimated to a holding facility one week prior to testing. A two-day FST paradigm is employed, in which mice are exposed to a 10 minute test in absence of drug, and are tested the following day in presence of drug in a 6 minute test. 2-FDCK is administered intraperitoneally (i.p.) in saline vehicle 30 minutes prior to FST. All animals are drug naïve and not previously exposed to behavioral testing.\nMale C57BL6N/Tac mice 10 weeks of age are housed four mice per cage under a 12:12 h light/dark cycle and are allowed to acclimate for approximately one week prior to behavioral procedures. Food and water is provided ad libitum. All procedures followed the National Institutes of Health Guide for the Care and Use of Laboratory Animals.\n2-FDCK is dissolved in a saline vehicle (0.9% sodium chloride). For the 2-FDCK dose response experiment, mice receive vehicle or varying doses of 2-FDCK i.p. 30 minutes prior to behavior testing.\nMice are tested in a two day forced swim test (FST) procedure. […] On day 2, mice receive i.p. injections 30 minutes prior to being placed in a cylinder for a 6 minute session and immobility time is scored during the final 4 minutes."}, "[2]": {"test_system": "patients with major depressive disorders", "details": "cited from earlier work"}, "[3]": {"test_system": "N-methyl-D-aspartate (NMDA) receptor", "details": "S-enantiomer compared with ketamine; cited from earlier work"}},
  "note": "Structures can show the parent of a compound that is named as a salt.",
  "data": [
    {"smiles": "CNC1(c2ccccc2F)CCCCC1=O", "note": "(centres unmarked) [2-FDCK, 2-(2-fluorophenyl)-2-(methylamino)cyclohexan-1-one]", "values": [
      {"measurement": "dose-response curve (shape)", "setting": "[1]", "value": "flatter than the dose-response curve for Ketamine"},
      {"measurement": "2-FDCK effect", "setting": "[1]; dosage 28 (mg)", "value": 1},
      {"measurement": "2-FDCK effect", "setting": "[1]; dosage 29 (mg)", "value": 1},
      {"measurement": "2-FDCK effect", "setting": "[1]; dosage 30 (mg)", "value": 1},
      {"measurement": "2-FDCK effect", "setting": "[1]; dosage 31 (mg)", "value": 1},
      {"measurement": "2-FDCK effect", "setting": "[1]; dosage 32 (mg)", "value": 1},
      {"measurement": "2-FDCK effect", "setting": "[1]; dosage 33 (mg)", "value": 1},
      {"measurement": "2-FDCK effect", "setting": "[1]; dosage 35 (mg)", "value": 1},
      {"measurement": "2-FDCK effect", "setting": "[1]; dosage 55 (mg)", "value": 2},
      {"measurement": "2-FDCK effect", "setting": "[1]; dosage 57 (mg)", "value": 2},
      {"measurement": "2-FDCK effect", "setting": "[1]; dosage 58 (mg)", "value": 2},
      {"measurement": "2-FDCK effect", "setting": "[1]; dosage 61 (mg)", "value": 2},
      {"measurement": "2-FDCK effect", "setting": "[1]; dosage 62 (mg)", "value": 2},
      {"measurement": "2-FDCK effect", "setting": "[1]; dosage 88 (mg)", "value": 3},
      {"measurement": "2-FDCK effect", "setting": "[1]; dosage 90 (mg)", "value": 3},
      {"measurement": "2-FDCK effect", "setting": "[1]; dosage 91 (mg)", "value": 3},
      {"measurement": "2-FDCK effect", "setting": "[1]; dosage 114 (mg)", "value": 4},
      {"measurement": "2-FDCK effect", "setting": "[1]; dosage 116 (mg)", "value": 4},
      {"measurement": "2-FDCK effect", "setting": "[1]; dosage 122 (mg)", "value": 4},
      {"measurement": "2-FDCK effect", "setting": "[1]; dosage 124 (mg)", "value": 4},
      {"measurement": "dose response curve (shape) compared to S-ketamine", "setting": "[1]; in treating patients with depression, specifically TRD", "value": "flatter dose response curve compared to S-ketamine"},
      {"measurement": "dosage effective as lower threshold", "setting": "[1]", "value": 30, "unit": "mg"},
      {"measurement": "immobility time", "setting": "C57BL/6N mice", "value": "shorter immobility times relative to mice receiving vehicle alone"}
    ]},
    {"smiles": "CNC1(c2ccccc2Cl)CCCCC1=O", "note": "(racemic) [Ketamine]", "values": [
      {"measurement": "onset of antidepressant effect", "setting": "[2]", "value": "rapid antidepressant effect, acting within two hours"},
      {"measurement": "Ketamine effect", "setting": "[1]; dosage 28 (mg)", "value": 1},
      {"measurement": "Ketamine effect", "setting": "[1]; dosage 31 (mg)", "value": 1},
      {"measurement": "Ketamine effect", "setting": "[1]; dosage 32 (mg)", "value": 1},
      {"measurement": "Ketamine effect", "setting": "[1]; dosage 55 (mg)", "value": 2},
      {"measurement": "Ketamine effect", "setting": "[1]; dosage 58 (mg)", "value": 2},
      {"measurement": "Ketamine effect", "setting": "[1]; dosage 59 (mg)", "value": 2},
      {"measurement": "Ketamine effect", "setting": "[1]; dosage 62 (mg)", "value": 2},
      {"measurement": "Ketamine effect", "setting": "[1]; dosage 89 (mg)", "value": 3},
      {"measurement": "Ketamine effect", "setting": "[1]; dosage 90 (mg)", "value": 4},
      {"measurement": "Ketamine effect", "setting": "[1]; dosage 92 (mg)", "value": 4},
      {"measurement": "Ketamine effect", "setting": "[1]; dosage 114 (mg)", "value": 4},
      {"measurement": "Ketamine effect", "setting": "[1]; dosage 120 (mg)", "value": 4},
      {"measurement": "Ketamine effect", "setting": "[1]; dosage 122 (mg)", "value": 4}
    ]},
    {"smiles": "CN[C@]1(c2ccccc2Cl)CCCCC1=O", "note": "[S-ketamine, (S)-2-(2-chlorophenyl)-2-(methylamino)cyclohexanone hydrochloride]", "values": [
      {"measurement": "potency or affinity for the NMDA receptor", "setting": "[3]", "value": "higher potency or affinity for the NMDA reception"}
    ]},
    {"smiles": "CNC1(c2ccccc2)CCCCC1=O", "note": "(centres unmarked) [2-DCK]", "values": [
      {"measurement": "dose-response curve (shape)", "setting": "[1]", "value": "dose-response curves that start rising sharply at low doses"},
      {"measurement": "2-DCK effect", "setting": "[1]; dosage 15 (mg)", "value": 1},
      {"measurement": "2-DCK effect", "setting": "[1]; dosage 16 (mg)", "value": 1},
      {"measurement": "2-DCK effect", "setting": "[1]; dosage 17 (mg)", "value": 1},
      {"measurement": "2-DCK effect", "setting": "[1]; dosage 18 (mg)", "value": 1},
      {"measurement": "2-DCK effect", "setting": "[1]; dosage 28 (mg)", "value": 3},
      {"measurement": "2-DCK effect", "setting": "[1]; dosage 29 (mg)", "value": 3},
      {"measurement": "2-DCK effect", "setting": "[1]; dosage 31 (mg)", "value": 3},
      {"measurement": "2-DCK effect", "setting": "[1]; dosage 33 (mg)", "value": 3},
      {"measurement": "2-DCK effect", "setting": "[1]; dosage 42 (mg)", "value": 4},
      {"measurement": "2-DCK effect", "setting": "[1]; dosage 43 (mg)", "value": 4},
      {"measurement": "2-DCK effect", "setting": "[1]; dosage 44 (mg)", "value": 4},
      {"measurement": "2-DCK effect", "setting": "[1]; dosage 45 (mg)", "value": 4},
      {"measurement": "2-DCK effect", "setting": "[1]; dosage 46 (mg)", "value": 4},
      {"measurement": "2-DCK effect", "setting": "[1]; dosage 57 (mg)", "value": 4},
      {"measurement": "2-DCK effect", "setting": "[1]; dosage 58 (mg)", "value": 4},
      {"measurement": "2-DCK effect", "setting": "[1]; dosage 61 (mg)", "value": 4},
      {"measurement": "2-DCK effect", "setting": "[1]; dosage 62 (mg)", "value": 4},
      {"measurement": "dosage effective as lower threshold", "setting": "[1]", "value": 15, "unit": "mg"}
    ]},
    {"smiles": "CCNC1(c2ccccc2)CCCCC1=O", "note": "(centres unmarked) [OPCE]", "values": [
      {"measurement": "dose-response curve (shape)", "setting": "[1]", "value": "dose-response curves that start rising sharply at low doses"},
      {"measurement": "OPCE effect", "setting": "[1]; dosage 3 (mg)", "value": 1},
      {"measurement": "OPCE effect", "setting": "[1]; dosage 4 (mg)", "value": 1},
      {"measurement": "OPCE effect", "setting": "[1]; dosage 6 (mg)", "value": 1},
      {"measurement": "OPCE effect", "setting": "[1]; dosage 9 (mg)", "value": 2},
      {"measurement": "OPCE effect", "setting": "[1]; dosage 11 (mg)", "value": 4},
      {"measurement": "OPCE effect", "setting": "[1]; dosage 12 (mg)", "value": 4},
      {"measurement": "dosage effective as lower threshold", "setting": "[1]", "value": 3, "unit": "mg"}
    ]}
  ]
}
